Here are results for two compounds from ChEMBL document CHEMBL5236646, “Design, synthesis, and biological evaluation of BRD4 degraders” (Bioorg Med Chem, 2023).

Assay [1] concerns the target T1, Protein cereblon/Bromodomain-containing protein 4 (Homo sapiens) (UniProt O60885+Q96SW2). As to the kind of experiment: Protac activity at CRBN/BRD4 in human MM1.S cells assessed as induction of BRD4 protein degradation by measuring residual activity at 1.8 uM incubated for 3 hrs by Western blot analysis relative to control. Type of assay: cell-based. Background: Immunoblotting shows a protein as a band on a membrane.

Assay [2] has as its target T1, Protein cereblon/Bromodomain-containing protein 4 (Homo sapiens). Put plainly: Protac activity at CRBN/BRD4 in human MM1.S cells assessed as induction of BRD4 protein degradation by measuring residual activity at 0.2 uM incubated for 3 hrs by Western blot analysis relative to control. It counts as cell-based.
Assay [3] shares this target. Put plainly: Protac activity at CRBN/BRD4 in human MV4-11 cells assessed as induction of BRD4 protein degradation by measuring residual activity at 0.04 uM incubated for 3 hrs by Western blot analysis relative to control. Type of assay: cell-based.
For another assay, the system named is MM1.S. Put plainly: Antiproliferative activity against human MM1.S cells assessed as inhibition of cell growth incubated for 72 hrs MTS assay. Type of assay: functional, cell-based. A general note: Formazan colour is commonly taken as a measure of viable cells.
For assay [4], the target named is T1, Protein cereblon/Bromodomain-containing protein 4 (Homo sapiens). As to the kind of experiment: Protac activity at CRBN/BRD4 in human MM1.S cells assessed as induction of BRD4 protein degradation by measuring residual activity at 0.6 uM incubated for 3 hrs by Western blot analysis relative to control. Type of assay: cell-based.
For assay [5] the target is unchanged. As to the kind of experiment: Protac activity at CRBN/BRD4 in human MV4-11 cells assessed as induction of BRD4 protein degradation by measuring residual activity at 0.12 uM incubated for 3 hrs by Western blot analysis relative to control. It counts as cell-based.
Another assay has as its system MV4-11. As to the kind of experiment: Antiproliferative activity against human […] cells assessed as inhibition of cell growth incubated for 72 hrs MTS assay. Type of assay: functional, cell-based. The settings on record: MV4-11, 72 h.
The target of assay [6] is T1, Protein cereblon/Bromodomain-containing protein 4 (Homo sapiens). As to the kind of experiment: Protac activity at CRBN/BRD4 in human MV4-11 cells assessed as induction of BRD4 protein degradation by measuring residual activity at 0.36 uM incubated for 3 hrs by Western blot analysis relative to control. Type of assay: cell-based.
Assay [7] has the same target. Put plainly: Protac activity at CRBN/BRD4 in human MM1.S cells assessed as induction of BRD4 protein degradation by measuring residual activity at 0.06 uM incubated for 3 hrs by Western blot analysis relative to control. Type of assay: cell-based.
Assay [8] shares this target. As to the kind of experiment: Protac activity at CRBN/BRD4 in human MV4-11 cells assessed as induction of BRD4 protein degradation by measuring residual activity at 0.005 uM incubated for 3 hrs by Western blot analysis relative to control. It counts as cell-based.
Assay [9] has the same target. Put plainly: Protac activity at CRBN/BRD4 in human MV4-11 cells assessed as induction of BRD4 protein degradation by measuring residual activity at 0.045 uM incubated for 3 hrs by Western blot analysis relative to control. Type of assay: cell-based.
Assay [10] shares this target. Put plainly: Protac activity at CRBN/BRD4 in human MV4-11 cells assessed as induction of BRD4 protein degradation by measuring residual activity at 0.015 uM incubated for 3 hrs by Western blot analysis relative to control. Type of assay: cell-based.
The target is the same in assay [11]. As to the kind of experiment: Protac activity at CRBN/BRD4 in human MM1.S cells assessed as induction of BRD4 protein degradation by measuring residual activity at 0.18 uM incubated for 3 hrs by Western blot analysis relative to control. Type of assay: cell-based.
For assay [12] the target is unchanged. As to the kind of experiment: Protac activity at CRBN/BRD4 in human MM1.S cells assessed as induction of BRD4 protein degradation by measuring residual activity at 0.02 uM incubated for 3 hrs by Western blot analysis relative to control. Type of assay: cell-based.

One may read the IC50 as the midpoint of a concentration-inhibition curve.

T1 sequence (Q96SW2 whole entry, looked up, other chains not shown): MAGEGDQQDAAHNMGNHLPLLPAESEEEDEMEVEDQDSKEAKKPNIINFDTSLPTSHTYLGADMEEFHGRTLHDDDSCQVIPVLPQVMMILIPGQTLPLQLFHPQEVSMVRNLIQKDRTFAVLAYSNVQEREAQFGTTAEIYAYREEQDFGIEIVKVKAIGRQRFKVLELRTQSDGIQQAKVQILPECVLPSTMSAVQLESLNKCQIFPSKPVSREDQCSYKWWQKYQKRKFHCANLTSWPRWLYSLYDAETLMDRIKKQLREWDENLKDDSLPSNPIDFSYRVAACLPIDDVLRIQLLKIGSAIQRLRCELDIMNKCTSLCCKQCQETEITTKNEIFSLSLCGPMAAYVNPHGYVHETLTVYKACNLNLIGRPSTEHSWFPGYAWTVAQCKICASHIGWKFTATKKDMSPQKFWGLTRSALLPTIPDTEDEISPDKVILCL

Take `Cc1sc2c(c1C)C(c1ccc(Cl)cc1)=N[C@@H](CC(=O)NCCCCNC(=O)c1ccc(CNc3cccc4c3C(=O)N(C3CCC(=O)NC3=O)C4=O)cc1)c1nnc(C)n1-2` (stereo partly specified): the Activity in assay [1] was found to be 139%; in assay [2] it was 144%; in assay [3], 121%; in assay [4] it was 141%; in [5] it was 99%; in assay [6] it was 131%. The IC50 with MM1.S came out at 602 nM; in the assay with MV4-11 it was 128 nM.

Take `Cc1sc2c(c1C)C(c1ccc(Cl)cc1)=N[C@@H](CC(=O)NCCCCNC(=O)c1ccc(COc3cccc4c3CN(C3CCC(=O)NC3=O)C4=O)cc1)c1nnc(C)n1-2` (stereo partly specified): the Activity in assay [7] came out at 98%; in [8] it was 126%; in assay [9] it was 95%; in assay [10] it was 102%; in assay [11], 59%; in assay [12], 93%. Besides, the IC50 came to 139 nM with MM1.S and 10 nM in the assay with MV4-11.
